ChEMBL document CHEMBL1250550, “Design, synthesis, biological evaluation, and modeling of a non-carbohydrate antagonist of the myelin-associated glycoprotein” (Bioorg Med Chem, 2010)

Experiments:
[1] = target: T1, Myelin-associated glycoprotein (Mus musculus) (UniProt P20917); test: Antagonist activity at mouse MAGd1-3Fc domain expressed in CHO-Lec1 cells by fluorescent hapten binding assay relative to (2R,4R,5S,6R)-5-acetamido-6-((1R,2R)-3-benzamido-1,2-dihydroxypropyl)-2-(benzyloxy)-4-hydroxytetrahydro-2H-pyran-2-carboxylate; type: cell-based
T1 sequence (whole entry): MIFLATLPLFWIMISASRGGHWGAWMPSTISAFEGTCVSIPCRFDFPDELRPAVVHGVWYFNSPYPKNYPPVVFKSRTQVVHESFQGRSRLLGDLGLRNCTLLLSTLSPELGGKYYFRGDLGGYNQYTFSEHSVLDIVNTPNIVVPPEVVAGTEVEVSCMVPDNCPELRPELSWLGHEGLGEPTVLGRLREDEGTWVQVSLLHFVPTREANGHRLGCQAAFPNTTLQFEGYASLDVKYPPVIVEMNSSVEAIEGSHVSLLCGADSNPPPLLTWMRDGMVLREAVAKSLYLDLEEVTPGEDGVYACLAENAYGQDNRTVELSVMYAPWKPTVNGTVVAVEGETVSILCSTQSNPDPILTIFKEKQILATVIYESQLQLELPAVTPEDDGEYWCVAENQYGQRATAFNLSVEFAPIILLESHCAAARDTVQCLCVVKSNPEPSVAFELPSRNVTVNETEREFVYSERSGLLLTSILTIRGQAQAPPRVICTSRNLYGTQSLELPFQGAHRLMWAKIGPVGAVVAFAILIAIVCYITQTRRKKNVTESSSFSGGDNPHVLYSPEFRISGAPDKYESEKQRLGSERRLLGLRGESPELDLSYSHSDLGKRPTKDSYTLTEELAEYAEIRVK

[2] = target: T2, Myelin-associated glycoprotein (Mus musculus, UniProt P20917); test: Binding affinity to mouse MAGd1-3Fc domain expressed in CHO-Lec1 cells by surface plasmon resonance
T2 sequence (P20917 whole entry): T1 sequence (whole entry)

Row | SMILES | Ratio IC50 [1] | Kd [2] [µM]
1 | O=C(CF)N[C@H]1[C@H]([C@H](O)[C@H](O)CNC(=O)c2ccc(Cl)cc2)O[C@@](OCc2cccc(F)c2F)(C(=O)O)C[C@@H]1O | 0.02 | 0.5
2 | CC(=O)N[C@H]1[C@H]([C@H](O)[C@H](O)CNC(=O)c2ccccc2)O[C@@](OCc2ccccc2)(C(=O)O)C[C@@H]1O |  | 26
3 | CC(=O)N[C@H]1C[C@](OCc2ccccc2)(C(=O)O)C[C@@H](OCCNC(=O)c2ccc(Cl)cc2)[C@@H]1NC(=O)CF | 4300 | > 800
